Experimental data: US20090130064A1, “DIFFERENTIATION OF STEM CELLS AND STABILIZATION OF PHENOTYPICAL PROPERTIES OF PRIMARY CELLS” (priority 2004, published 2009)

Assays:
primary rat hepatocytes = experiment: Albumin secretion (ELISA) by primary rat hepatocyte cultures; format: cell-based
Description: Medium samples were collected at 72 hours of culture and analyzed for their albumin content by an enzyme-linked immunosorbent assay (ELISA) as described (Dunn et al. Biotechnol Prog 7: 237-245, 1991) Cell morphology was analyzed by light microscopy (×100). Pictures were taken using an Optiphot Nikon Phase Contrast microscope (Cetec, Brussels, Belgium).
Medium samples were collected at 72 hours of culture and analyzed for their albumin content by an enzyme-linked immunosorbent assay (ELISA) as described (Dunn et al. Biotechnol Prog 7: 237-245, 1991).

rat hepatocytes = experiment: LDH index (membrane damage) in rat hepatocyte suspensions; format: cell-based; settings: concentrations up to 100 μM; 6 h
[1] = tested on: freshly isolated rat hepatocytes; experiment: Biotransformation in suspensions of freshly isolated rat hepatocytes; format: in vitro ADME
Description: Male outbred Sprague Dawley rats (Iffa Credo, Brussels, Belgium) weighing 200-300 g were used. The animals were kept under controlled environmental conditions (12 h light-dark cycle) and had free access to food (Animalabo A 04) and water. After intraperitoneal injection of Nembutal® (0.1 ml/kg body weight), hepatocytes were isolated as described by De Smet et al.. Cell integrity was evaluated by trypan blue exclusion, and was 88±3% (n=20). 5, 25 and 50 μM of both compounds were incubated with 2×10^6 hepatocytes/ml (final volume 3 ml) in HEPES buffer (pH 7.65, 37° C.) up to 6 h. Control samples were obtained by boiling the hepatocyte suspension for 2 min prior to the addition of substrate; cell-free controls contained the substrate in the incubation buffer without hepatocytes. At selected time intervals, 1.0 ml aliquots were submersed in liquid nitrogen to stop the biotransformation reaction.
After centrifugation (2000 g, 45 min, 4° C.) of the diluted microsomal samples, the clear supernatant was injected onto a HPLC column. Samples from incubations with hepatocytes were thawed on ice and centrifugated (120 g, 2 min). The supernatants (extracellular) were subjected to solid phase extraction (Waters Oasis™ HLB cartridges, Waters Corporation, Milford, Mass., USA), while cell pellets (intracellular) were ultrasonicated in 1 ml methanol and centrifugated (2000 g, 30 min, 4° C.). Separations ([…]) were performed by reversed-phase HPLC (Kontron chromatographic system, Milan, Italy) on a Discovery C18, 5 μm, 250×4.6 mm column (Supelco, Sigma-Aldrich, Bornem, Belgium). The mobile phase consisted of component A (0.1% (v/v) aqueous trifluoroacetic acid) and component B (0.1% (v/v) trifluoroacetic acid in acetonitrile). A linear gradient from 3 to 80% (v/v) B was used over 30 min at a flow rate of 1.0 ml/min. […]

p21 = experiment: Western blotting of p21 in primary rat hepatocytes; format: cell-based
Text: Male outbred Sprague-Dawley rats (200-300 g, Iffa Credo, Brussels, Belgium) were kept under controlled environmental conditions (12-hr light-dark cycle) and fed a standard diet (Animafabo A04, water ad libitum). Hepatocytes were isolated by a two-step collagenase perfusion as described (De Smet et al. In ‘Methods in Molecular Biology, Vol. 107: Cytochrome P450 Protocols’, Philips I R and Shephard E A, eds., pp 295-301, Humana Press, Totowa, 1998). Cell liability was >90% as determined by trypan blue exclusion. Cells (0.4×10^5 cells/cm^2) were plated in MEM/M199 (3:1), containing BSA (1 mg/ml), bovine insulin (10 μg/ml), L-glutamine (2 mM), FBS (10% v/v) and antibiotics (7.3 IU/ml benzyl penicillin, 50 μg/ml streptomycin sulphate, 50 μg/ml kanamycin monosulphstep and 10 μg/ml sodium ampicillin). Four hours after plating, serum-containing medium was removed and fresh serum-free medium was added to the cultures. Culture medium was refreshed daily. […]
Total cell extracts were prepared as described previously (Papeleu et al. J Hepatol 39: 374-382, 2003) and proteins (25 or 50 μg per lane) were separated electrophoretically by SDS-PAGE and electroblotted onto nitrocellulose membranes (Amersham Pharmacia Biotech, Buckinghamshire, UK). […] Proteins were detected using the ECL detection system (Amersham Pharmacia Biotech, Buckinghamshire, UK) according to the manufacturer's recommendations.

[2] = tested on: glutathione S-transferase (GST); experiment: Total cytosolic GST activity in cultured rat hepatocytes; format: cell-based; settings: TSA starting at 4 hours; day 4 and 7
Text: Hepatocytes were isolated from male Sprague-Dawley rats by a two-step collagenase perfusion as described (De Smet et al. In ‘Methods in Molecular Biology, Vol. 107: Cytochrome P450 Protocols’, Philips IR and Shephard E A, eds., p.p 295-301, Humana Press, Totowa, 1998). Hepatocytes were cultivated in monolayer cultures with Willam's E Medium (WE) for 7 days. […] The maintenance of differentiation characteristics was studied after 2, 4, and 7 days (D2, D4, D7) of culture.
In order to investigate Phase II biotransformation, total cytosolic glutathione S-transferase (GST) activity and activities of individual GSTA, GSTP, and GSTM iso-enzymes were measured using standard techniques known in the art. (i.e., measuring conjugation of reduced glutathione with 1-chloro-2,4-dinitrobenzene for total GST; measuring conjugation of reduced glutathione with 7-chloro-4-nitrobenzo-2-oxa-1,3-diazole for GSTA activity; measuring conjugation of reduced glutathione with ethacrynic acid for GSTP activity; and measuring conjugation of reduced glutathione with 1,2-dichloro-4-nitrobenzene for GSTM activity).

| time to full degradation ([1]; 50 μM, 2×10^6 hepatocytes/ml) | half-life in comparison to TSA ([1]; rat hepatocyte suspensions) | Structure (SMILES) | secretion of albumin into the culture medium compared with 1 μM TSA (primary rat hepatocytes; 50 μM 4-Me2N-BAVAH from day 0) | increase in albumin secretion (primary rat hepatocytes; 50 μM, 72 hours, versus untreated EGF-stimulated hepatocytes) [fold] | cell viability (LDH leakage) of hepatocytes in suspension (rat hepatocytes) | p21 expression (p21; 50 μM 4-Me2N-BAVAH + EGF) | secretion of albumin versus cells isolated in absence of TSA (primary rat hepatocytes; 1 μM TSA in the collagenase perfusion solution) | total GST activity versus EtOH treated controls [2] | time to complete metabolism / full degradation ([1]; 50 μM, 2×10^6 hepatocytes/ml) [min] | p21 accumulation (p21; 1 μM TSA during liver perfusion and culture, 72 hours) |
| --- | --- | --- | --- | --- | --- | --- | --- | --- | --- | --- |
| more than 3 h | longer half-life | CN(C)c1ccc(C(=O)NCCCCC(=O)NO)cc1 [4-Me2N-BAVAH, 5-(4-dimethylaminobenzoyl)-aminovaleric acid hydroxamide] | significantly higher secretion of albumin | 2.44±0.29 | not toxic | completely inhibited | – | – | – | – |
| – | – | CC(C=CC(=O)NO)=CC(C)C(=O)c1ccc(N(C)C)cc1 (centres unmarked) [TSA] | – | – | did not affect cell viability | – | significantly higher secretion of albumin | significantly higher | ≤ 40 | complete absence of p21 accumulation |
